In patent US10472352B2, “Rac inhibitors” (Geneyus LLC, priority 2017, dated 2019):

Legend:
[1] = system: androgen receptor response gene (PSA) in LNCaP prostate cancer cells; assay: Inhibition of Androgen Receptor Target Gene Transcription (PSA qPCR); type: cell-based; settings: 10 nM DHT, 4 hours, 10 uM bicalutamide, 10 uM enzalutamide, 12.5 or 25 uM 0032661
Protocol: After 4 hours, RNA was harvested and converted into cDNA. qPCR analysis for PSA was performed on all samples and normalized to expression of GAPDH. The data, shown in FIG. 11, is expressed as fold change relative to PSA expression of the cFBS sample.

[2] = system: MCF-7 human breast cancer cell line; assay: Cell Viability Assay (MCF7), PrestoBlue; type: cell-based; settings: MCF7, 72 h, MCF-7 cells, three days after drug treatment
Summary of the method: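 MCF-7 cells seeded 24 hours before dosing with 0 to 200 μM compound (11 concentrations, 1% DMSO final) for three days. PrestoBlue (resazurin) added to 10% final, 1 hour incubation, fluorescence at ex 560/em 590 nm; percentage living cells relative to control wells.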

[3] = biological target: His-Rac1 / GST-PBD (PAK Binding Domain) (Homo sapiens, UniProt P63000); assay: Rac Activation AlphaScreen Assay (Rac1 AS); type: biochemical; settings: 500 nM GTPγS, 37° C., 1 hour; 'positive' = signal generated was higher than the positive control
Protocol: AlphaScreen® assays were performed in 96-well microplates in a final reaction volume of 60 μl. Recombinant His-Rac1, recombinant GST-PBD (PAK Binding Domain), donor and acceptor beads (PerkinElmer), and inhibitors were incubated in exchange buffer (20 mM Tris pH 7.5, 50 mM NaCl, 1 mM MgCl2, 1 mM EDTA, 500 nM GTPγS (guanosine 5′-[γ-thio]triphosphate)) at 37° C. Readings were performed on a Tecan M1000 pro microplate reader after 1 hour.

[4] = system: estrogen receptor response gene (SDF) in MCF7 breast cancer cells; assay: Inhibition of Estrogen Receptor Target Gene Transcription (SDF qPCR); type: cell-based; settings: MCF7, 10 nM estradiol, 4 hours
Protocol: After 4 hours, RNA was harvested and converted into cDNA. qPCR analysis for SDF was performed on all samples and normalized to expression of GAPDH. The data, shown in FIG. 7, is expressed as fold change relative to SDF expression of the cFBS sample.

Rac1 protein = biological target: T1, Rac1 protein (Homo sapiens, UniProt P63000); assay: Fluorescence Polarization Assay (Rac1 FP); type: binding; settings: 125 nM his-tagged Rac1, 12.5 nM Bodipy-TR GTPγS, 30 minutes at 37° C.
T1 construct: purchased Cytoskeleton Inc. RC01
Summary of the method: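 His-tagged recombinant Rac1 (125 nM final) plus 12.5 nM Bodipy-TR GTPγS incubated with serially diluted compound for 30 min at 37 °C. Buffer: 20 mM Tris pH 7.5, 50 mM NaCl, 1 mM MgCl, 1 mM EDTA. Fluorescence polarization read at 590/625 nm excitation/emission.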

[5] = system: PSA in LNCaP prostate cancer cells; assay: Inhibition of Increased Protein Levels of PSA (immunoblot); type: cell-based; settings: 10 nM DHT, 18 hours, 5 uM enzalutamide, 10, 15 or 20 uM 0032661
Protocol: After 18 hours protein was harvested. SDS-PAGE followed by immunoblotting of samples was performed using standard techniques. Protein lysates were immunoblotted for the Androgen Receptor (AR), PSA, and Actin.

[6] = system: androgen receptor splice variant (ARV7) in LNCaP cells; assay: LNCaP ARE Luciferase Assay, ARV7 cells; type: cell-based; settings: LNCaP cells overexpressing ARV7, 10 nM DHT, 4 hours; 5 or 10 uM 0032661
Protocol: (§1) LNCaP prostate cancer cells as well as LNCaP cells that overexpress the oncogenic androgen receptor splice variant (designated ARV7) were engineered to express an Androgen Receptor (AR) luciferase reporter (SABiosciences). […] After 4 hours, cell lysate was harvested. 50 μg protein lysates were used in a luciferase assay.

[7] = system: Androgen Receptor (AR) luciferase reporter in LNCaP prostate cancer cells; assay: LNCaP ARE Luciferase Assay; type: cell-based; settings: 10 nM DHT, 4 hours, 1 uM bicalutamide, 1 uM enzalutamide, 5 or 10 uM 0032661
Protocol: as §1

[8] = system: estrogen receptor response genes Cyclin D1 and pS2 in MCF7 breast cancer cells; assay: Inhibition of Estrogen Receptor Target Gene Protein Expression (immunoblot); type: cell-based; settings: MCF7, 10 nM E2, 18 hours
Protocol: After 18 hours, protein was harvested. SDS-PAGE followed by immunoblotting of samples was performed using standard techniques. Protein lysates were immunoblotted for Estrogen Receptor (ER), Cyclin D1, pS2, and Actin.

[9] = 1 uM fulvestrant, 5 or 10 uM 0032661

IC50 [2]: 6.6 µM
IC50 [3]: 44.8 µM
IC50 (Rac1 protein): 3.25 µM
Compound: FC(F)(F)c1ccc2c(SCCCCCCn3cnc(CN4CCOCC4)c3)ccnc2c1 [Compound 0032661, 4-[[1-[6-[[7-(trifluoromethyl)-4-quinolyl]sulfanyl]hexyl]imidazol-4-yl]methyl]morpholine]
androgen receptor target gene transcription (PSA) [1]: inhibit the androgen receptor target gene transcription
SDF gene expression, combination ([4]; 1 uM fulvestrant plus 5 uM 0032661): reduces SDF gene expression more than either single treatment alone
estrogen receptor target gene transcription (SDF) [4, 9]: inhibit the estrogen receptor target gene transcription
increase in protein levels of PSA [5]: inhibit the increase in protein levels of PSA
luciferase expression of the ARV7 splice variant [6]: inhibited luciferase expression of the ARV7 splice variant
androgen receptor luciferase expression (fold activation) [7]: inhibit the androgen receptor luciferase expression
estrogen receptor target gene protein expression, combination ([8]; 1 uM fulv plus 5 uM 0032661): reduces estrogen receptor target gene protein expression more than either single treatment alone
protein levels of estrogen receptor target genes (Cyclin D1, pS2) [8, 9]: inhibit the increase in protein levels of estrogen receptor target genes
